Measured values as given in patent US11786517B2, “Methods of treatment using a JAK inhibitor compound” (THERAVANCE BIOPHARMA R&D IP, LLC, priority 2017, dated 2023).

Assays:
[1] = Ocular pharmacokinetics in rabbit eyes; assay type: in vivo, New Zealand white rabbits
Protocol: The objective of this assay was to determine the pharmacokinetics of the test compound in rabbit ocular tissues.
The compound of the invention, 5-ethyl-2-fluoro-4-(3-(5-(1-methylpiperidin-4-yl)-4,5,6,7-tetrahydro-1H-imidazo[4,5-c]pyridin-2-yl)-1H-indazol-6-yl)phenol (1) was dissolved in either 10% 2-hydroxypropyl-β-cyclodextrin to attain a target concentration of 4 mg/mL or in purified water to attain a target concentration of 1 mg/mL. Bilateral intravitreal injection (50 μL/eye) of the solution of test compound was administered to New Zealand white rabbits in two dose groups, 200 μg/eye and 50 μg/eye, respectively, for the cyclodextrin and water vehicle formulations, respectively. The test compound concentration was measured in ocular tissues: vitreous, aqueous, retina/choroid and iris-ciliary body at pre-determined time points post injection (30 min, 4 h, 1 d, 3 d, 7 d, 14 d). Two rabbits (four eyes) were dosed for each time point.
A suspension formulation was prepared by combining crystalline compound 1 of Example 1 with 0.5% hydroxypropyl methylcellulose (HPMC E5)+0.02% Tween 80 to attain a target concentration of 10 mg/mL. Bilateral intravitreal injection (50 μL/eye) of the suspension of test compound was administered to New Zealand white rabbits (500 μg/eye). The test compound concentration was measured in ocular tissues as in the […] at 30 min, 2 wks, 4 wks, 6 wks, and 8 wks post injection. […] The behavior is consistent with the solubility of compound 1 in the vehicle and the ocular pharmacokinetic behavior in the solution formulation. The drug concentration in plasma was measured and found to be at least 3 orders of magnitude lower than the concentration in vitreous tissue.

[2] = test system: IFNγ induced pSTAT1 in rabbit retina/choroid tissue; assay: Pharmacodynamic assay: inhibition of IFNγ-induced pSTAT1 in rabbit eyes; assay type: in vivo, New Zealand White rabbits; settings: 0.9 mg intravitreal suspension, 1 week pre-treatment
Protocol: The ability of a single intravitreal administration of test compound to inhibit interferon-gamma (IFNγ) induced phosphorylation of STAT1 protein (pSTAT1) was measured in rabbit retina/choroid tissue.
A suspension formulation was prepared by combining compound 1 of Example 1, with 0.5% hydroxypropyl methylcellulose (HPMC E5), 0.02% Tween 80, and 9 mg/mL sodium chloride in purified water to attain a target concentration of 20 mg/mL.
Male, New Zealand White rabbits (Liveon Biolabs, India) were used for the studies. Animals were acclimated after arrival at the research facilities (Jubilant Biosys Ltd., India). Each rabbit was given a total of two intravitreal (IVT) injections with a total dose volume of 50 μL per eye. The first IVT injection (45 μL per eye) delivered 0.9 mg of test compound or vehicle. One week later, a second IVT injection (5 μL per eye) delivered IFNγ (1 μg/eye; stock solution 1 mg/mL; Kingfisher Biotech) or vehicle for the induction of IP-10. […]
Tissues were collected 2 hours after the second IVT injection with IFNγ. Retina/choroid tissues (R/C) were collected and homogenized, and pSTAT1 levels were measured by quantitative Western Blot on the ProteinSimple WES instrument. The percent inhibition of IFNγ-induced pSTAT1 was calculated in comparison to the vehicle/vehicle and vehicle/IFNγ groups.

- drug concentration in plasma lower than concentration in vitreous tissue ([1]; intravitreal injection, listed as compound 1 of Example 1): at least 3 orders of magnitude
- clearance rate, linear decrease in drug concentration in the vitreous ([1]; intravitreal suspension 500 μg/eye, 30 min to 6 weeks): approximately 3 μg/mL/day
Structure (SMILES): CCc1cc(O)c(F)cc1-c1ccc2c(-c3nc4c([nH]3)CCN(C3CCN(C)CC3)C4)n[nH]c2c1 [Example 1, Crystalline hydrate of 5-ethyl-2-fluoro-4-(3-(5-(1-methylpiperidin-4-yl)-4,5,6,7-tetrahydro-1H-imidazo[4,5-c]pyridin-2-yl)-1H-indazol-6-yl)phenol]
- inhibition of IFNγ-induced pSTAT1 [2]: 85%
